Assay results from patent US9505781B2, “Compositions comprising thienopyrimidine and thienopyridine compounds and methods of use thereof” (The Regents of the University of Michigan, priority 2013, dated 2016).

Target: T1, menin-MLL interaction (Homo sapiens, UniProt O00255)
T1 sequence (O00255 1-610): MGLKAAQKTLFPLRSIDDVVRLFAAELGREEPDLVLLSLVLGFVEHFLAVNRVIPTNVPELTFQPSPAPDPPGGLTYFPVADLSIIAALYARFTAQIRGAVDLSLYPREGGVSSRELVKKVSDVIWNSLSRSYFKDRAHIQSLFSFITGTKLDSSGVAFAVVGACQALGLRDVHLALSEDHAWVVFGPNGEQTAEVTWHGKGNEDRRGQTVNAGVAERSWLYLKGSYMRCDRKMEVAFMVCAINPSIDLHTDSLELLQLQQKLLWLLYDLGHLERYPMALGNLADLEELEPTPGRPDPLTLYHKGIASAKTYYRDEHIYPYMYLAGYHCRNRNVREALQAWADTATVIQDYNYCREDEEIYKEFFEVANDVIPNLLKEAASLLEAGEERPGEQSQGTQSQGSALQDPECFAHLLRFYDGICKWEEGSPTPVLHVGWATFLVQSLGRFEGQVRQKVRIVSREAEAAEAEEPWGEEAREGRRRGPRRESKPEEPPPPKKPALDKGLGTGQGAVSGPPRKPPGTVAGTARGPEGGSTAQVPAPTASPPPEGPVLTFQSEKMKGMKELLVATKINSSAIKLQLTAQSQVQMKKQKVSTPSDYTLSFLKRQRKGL
Assay: biochemical
Excerpt: Compounds that inhibit the interaction decrease the fluorescence anisotropy which is being used as a read-out for compound screening and for IC50 determination.

| SMILES | IC50 [nM] |
| --- | --- |
| CO[C@@H](CO)Cn1c(C#N)cc2cc(CN3CCC(Nc4ncnc5sc(CC(F)(F)F)cc45)CC3)ccc21 [Compound 190] | < 100 |
| Nc1cccc(CN2CCC(Nc3ncnc4sc(CC(F)(F)F)cc34)CC2)c1 [Compound 157] | 500 to 2000 |
| COc1cc2c(cc(C#N)n2Cc2cn[nH]c2)c(C)c1CN1CCC(Nc2ncnc3sc(CC(F)(F)F)cc23)CC1 [Compound 389] | < 100 |
| CCCc1cc2c(N(C)C3CCN(Cc4ccccc4)CC3)ncnc2s1 [Compound 150] | 500 to 2000 |
| FC(F)(F)Cc1cc2c(NC3CCN(Cc4ccc(N5CCOCC5)cc4Cl)CC3)ncnc2s1 [Compound 115] | 100 to 500 |
| Cc1c(CN2CCC(Nc3ncnc4sc(CC(F)(F)F)cc34)CC2)ccc2c1cc(C#N)n2CCN1CCS(=O)(=O)CC1 [Compound 368] | < 100 |
| N#Cc1cc2cc(CN3CCC(Nc4ncnc5sc(CC(F)(F)F)cc45)CC3)ccc2n1Cc1cc(OCCCCC2CC2)n[nH]1 [Compound 415] | 100 to 500 |
| O=C(Cc1ccc(NS(=O)(=O)N2CCCCC2)cc1)N1CCN(c2ncnc3sc(CC(F)(F)F)cc23)CC1 [Compound 52] | < 100 |
| COc1cc2[nH]c(C#N)cc2cc1CN1CCC(Nc2ncnc3sc(CC(F)(F)F)cc23)CC1 [Compound 181, 6-methoxy-5-((4-((6-(2,2,2-trifluoroethyl)thieno[2,3-d]pyrimidin-4-yl)amino)piperidin-1-yl)methyl)-1H-indole-2-carbonitrile] | < 100 |
| N#Cc1cc2c(Br)c(CN3CCC(Nc4ncnc5sc(CC(F)(F)F)cc45)CC3)ccc2[nH]1 [Compound 298] | < 100 |
| N[C@H]1CN(Cc2ccccc2)CC[C@@H]1Nc1ncnc2sc(CC(F)(F)F)cc12 [Compound 166] | 100 to 500 |
| N#Cc1cc2cc(CN3CCC(Nc4ncnc5sc(CC(F)(F)F)cc45)C(N)C3)ccc2[nH]1 (stereo not drawn) [Compound 160] | < 100 |
| Cc1ncc(Cn2c(C#N)cc3c(C)c(CN4CCC(Nc5ncnc6sc(CC(F)(F)F)cc56)CC4)ccc32)s1 [Compound 323] | < 100 |
| CCCc1cc2c(NC3CCN(Cc4ccccc4Cl)CC3)ncnc2s1 [Compound 154] | 500 to 2000 |
| N#CCc1ccc2[nH]cc(CN3CCC(Nc4ncnc5sc(CC(F)(F)F)cc45)CC3)c2c1 [Compound 252] | 500 to 2000 |
| CN1CCN(Cc2ccc(CN3CCC(CNc4ncnc5sc(CC(F)(F)F)cc45)CC3)cc2)CC1 [Compound 267] | 500 to 2000 |
| FC(F)Oc1ccc(CN2CCC(Nc3ncnc4sc(CC(F)(F)F)cc34)CC2)cc1 [Compound 141] | 500 to 2000 |
| CC(O)(CO)Cn1c(C#N)cc2cc(CN3CCC(Nc4ncnc5sc(CC(F)(F)F)cc45)CC3)ccc21 (stereo not drawn) [Compound 221] | < 100 |
| N#Cc1cc2cc(CN3CCC(Nc4ncnc5sc(CC(F)(F)F)cc45)CC3)c(F)cc2[nH]1 [Compound 234] | 100 to 500 |
| N#Cc1cc2c(Cl)c(CN3CCC(Nc4ncnc5sc(CC(F)(F)F)cc45)CC3)ccc2n1C[C@H](O)CO [Compound 226] | < 100 |
| COc1cc2c(cc(C#N)n2CCO)c(C)c1CN1CCC(Nc2ncnc3sc(CC(F)(F)F)cc23)CC1 [Compound 386] | < 100 |
| COCCOCC(O)(CO)Cn1c(C#N)cc2c(C)c(CN3CCC(Nc4ncnc5sc(CC(F)(F)F)cc45)CC3)ccc21 (stereo not drawn) [Compound 315] | < 100 |

| SMILES | IC50 [nM] |
| --- | --- |
| CC(C)NCC(O)Cn1c(C#N)cc2cc(CN3CCC(Nc4ncnc5sc(CC(F)(F)F)cc45)CC3)ccc21 (stereo not drawn) [Compound 251] | 500 to 2000 |
| Cc1c(CN2CCC(Nc3ncnc4sc(CC(F)(F)F)cc34)CC2)ncc2[nH]c(C#N)cc12 [Compound 380] | < 100 |
| FC(F)(F)Cc1cc2c(N3CCN(CC4CCCCC4)CC3)ncnc2s1 [Compound 9] | 100 to 500 |
| Nc1ccc(CC(=O)N2CCN(c3ncnc4sc(CC(F)(F)F)cc34)CC2)cc1 [Compound 69] | 100 to 500 |
| CC(=O)NCCC(O)(CO)Cn1c(C#N)cc2c(C)c(CN3CCC(Nc4ncnc5sc(CC(F)(F)F)cc45)CC3)ccc21 (stereo not drawn) [Compound 371] | < 100 |
| FC(F)(F)c1nnc(N2CCN(c3ncnc4sc(C5CC5)cc34)CC2)s1 [Compound 28] | 500 to 2000 |
| NS(=O)(=O)Cc1ccc(CC(=O)N2CCN(c3ncnc4sc(CC(F)(F)F)cc34)CC2)c(F)c1 [Compound 78] | 100 to 500 |
| CCOc1cc2[nH]c(C#N)cc2cc1CN1CCC(Nc2ncnc3sc(CC(F)(F)F)cc23)CC1 [Compound 215] | < 100 |
| Cc1noc(C)c1Cn1c(C#N)cc2cc(CN3CCC(Nc4ncnc5sc(CC(F)(F)F)cc45)CC3)ccc21 [Compound 241] | 100 to 500 |
| N#Cc1cc2cc(CN3CCC(Nc4ncnc5sc(CC(F)(F)F)cc45)CC3)ccc2n1Cc1c[nH]cn1 [Compound 185] | < 100 |
| FC(F)(F)Cc1cc2c(NCC3CCN(Cc4ccc(Cl)cc4C(F)(F)F)CC3)ncnc2s1 [Compound 269] | 500 to 2000 |
| FC(F)(F)Cc1cc2c(N(NCc3ccccc3)C3CCN(Cc4ccccc4)CC3)ncnc2s1 [Compound 124] | 100 to 500 |
| CCOc1c(CN2CCC(Nc3ncnc4sc(CC(F)(F)F)cc34)CC2)ccc2[nH]c(C#N)cc12 [Compound 244] | 100 to 500 |
| Cc1ccc(CN2CCC(CNc3ncnc4sc(CC(F)(F)F)cc34)CC2)cc1 [Compound 275] | 500 to 2000 |
| CS(=O)(=O)N(CC(F)(F)F)c1ccc(CC(=O)N2CCN(c3ncnc4sc(CC(F)(F)F)cc34)CC2)cc1 [Compound 85] | 100 to 500 |
| N#Cc1cc2c(Br)c(CN3CCC(Nc4ncnc5sc(CC(F)(F)F)cc45)CC3)ccc2n1CC(N)=O [Compound 307] | < 100 |
| FC(F)(F)Cc1cc2c(NCC3CCN(Cc4ccc(Cl)cc4)CC3)ncnc2s1 [Compound 261] | 100 to 500 |
| N#Cc1cc2cc(CN3CC[C@H](Nc4ncnc5sc(CC(F)(F)F)cc45)[C@H](CO)C3)ccc2[nH]1 [Compound 163] | < 100 |
| Cc1c(CN2CCC(Nc3ncnc4sc(CCF)cc34)CC2)ccc2[nH]c(C#N)cc12 [Compound 423] | < 100 |
| Cc1cn[nH]c1Cn1c(C#N)cc2c(C)c(CN3CCC(Nc4ncnc5sc(CC(F)(F)F)cc45)CC3)ccc21 [Compound 330] | < 100 |
| N#Cc1cc2c(Cl)c(CN3CCC(Nc4ncnc5sc(CC(F)(F)F)cc45)CC3)ccc2[nH]1 [Compound 224] | < 100 |
| N#Cc1cc2cc(CN3CCC(Nc4ncnc5sc(CC(F)(F)F)cc45)CC3)ccc2n1N [Compound 230] | 100 to 500 |

| SMILES | IC50 [nM] |
| --- | --- |
| Cc1ccc2[nH]c(C#N)cc2c1CN1CCC(Nc2ncnc3sc(CC(F)(F)F)cc23)CC1 [Compound 218] | < 100 |
| CCCCc1cc2c(N3CCN(c4nnc(C(F)(F)F)s4)CC3)ncnc2s1 [Compound 34] | 500 to 2000 |
| Cc1c(CC(F)(F)F)sc2ncnc(N3CCN(c4nnc(C(F)(F)F)s4)CC3)c12 [Compound 7] | 100 to 500 |
| CCC(=O)N1CCN(CCn2c(C#N)cc3cc(CN4CCC(Nc5ncnc6sc(CC(F)(F)F)cc56)CC4)ccc32)CC1 [Compound 394] | < 100 |
| FC(F)(F)Cc1cc2c(NCC3CCN(Cc4ccccc4Cl)CC3)ncnc2s1 [Compound 260] | 100 to 500 |
| N#CCn1c(C#N)cc2cc(CN3CCC(Nc4ncnc5sc(CC(F)(F)F)cc45)CC3)ccc21 [Compound 197] | < 100 |
| CS(=O)(=O)N(CC1CC1)c1ccc(CC(=O)N2CCN(c3ncnc4sc(CC(F)(F)F)cc34)CC2)cc1 [Compound 102] | 500 to 2000 |
| CCCc1cc2c(NC3CCN(Cc4ccccc4Br)CC3)ncnc2s1 [Compound 152] | 500 to 2000 |
| N#Cc1cc2cc(CN3CCC(Nc4ncnc5sc(CC(F)(F)F)cc45)CC3)ccc2n1Cc1cnn(CCOCC2CC2)c1 [Compound 318] | < 100 |
| CC(C)OC(CO)Cn1c(C#N)cc2cc(CN3CCC(Nc4ncnc5sc(CC(F)(F)F)cc45)CC3)ccc21 (stereo not drawn) [Compound 292] | < 100 |
| Cc1c(CN2CCC(Nc3ncnc4sc(CC(F)(F)F)cc34)CC2)ccc2c1cc(C#N)n2CCN1CCN(C(=O)Cc2ccccc2)CC1 [Compound 340] | < 100 |
| COc1cc2c(cc(C#N)n2Cc2c[nH]nn2)c(C)c1CN1CCC(Nc2ncnc3sc(CC(F)(F)F)cc23)CC1 [Compound 392] | < 100 |
| N#Cc1cc2cc(CN3CCC(Nc4ncnc5sc(CC(F)(F)F)cc45)C(N)C3)ccc2n1CC1CC1 (stereo not drawn) [Compound 162] | < 100 |
| FC(F)(F)Cc1cc2c(N[C@H]3CCN(Cc4ccccc4)C[C@@H]3NCc3ccccc3)ncnc2s1 [Compound 167] | 100 to 500 |
| FC(F)(F)Cc1cc2c(N[C@H]3CCN(Cc4ccccc4)C[C@@H]3NCCC3CCCC3)ncnc2s1 [Compound 171] | 100 to 500 |
| CN(C)CCS(=O)(=O)Nc1ccc(CC(=O)N2CCN(c3ncnc4sc(CC(F)(F)F)cc34)CC2)cc1 [Compound 59] | < 100 |
| CNS(=O)(=O)c1ccc(CC(=O)N2CCN(c3ncnc4sc(CC(F)(F)F)cc34)CC2)cc1 [Compound 82] | 100 to 500 |
| N#Cc1cc2nc(CN3CCC(Nc4ncnc5sc(CC(F)(F)F)cc45)CC3)ccc2[nH]1 [Compound 424] | < 100 |
| COCCCc1cc2c(N3CCN(C4=NCC(C)(C)S4)CC3)ncnc2s1 [Compound 25] | 500 to 2000 |
| N#Cc1cc2cc(CN3CCC(Nc4ncnc5sc(CC(F)(F)F)cc45)CC3)cc(F)c2n1CC(N)=O [Compound 246] | 100 to 500 |
| NCc1ccc(CN2CCC(Nc3ncnc4sc(CC(F)(F)F)cc34)CC2)cc1 [Compound 137] | 500 to 2000 |
| N#Cc1cc2cc(CN3CCC(Nc4c(COCc5cc[nH]n5)cnc5sc(CC(F)(F)F)cc45)CC3)ccc2[nH]1 [Compound 420] | 500 to 2000 |
